Experimental data from publication PMC12077149, “Evolution of PqsE as a Pseudomonas aeruginosa-specific regulator of LuxR-type receptors: insights from Pseudomonas and Burkholderia” (mBio, 2025).

Key:
CepR [1] = molecular target: T1, CepR (Burkholderia cepacia, UniProt Q9AM51); assay: protein solubilization in E. coli, SDS-PAGE; assay type: cell-based; conditions: AHL added at induction
T1 construct: gene CO711_26440; untagged full-length, in E. coli (arabinose-inducible with pcepI-luxCDABE reporter; pET-DUET for solubility)

HhqE^Bc [2] = test system: T2, HhqE^Bc; assay: thiol release with Ellman's reagent, A412; assay type: biochemical, Burkholderia cepacia; conditions: 0.1 M Tris-HCl pH 8.0, 2 mM DTNB; 2 µM enzyme; substrate up to 1 mM
T2 construct: 6xHis-tagged, E. coli BL21(DE3), Ni-NTA and SEC; monomer (~32 kDa by SEC)
Source text: thiol release with Ellman's reagent, A412 on HhqE^Bc

CepR [3] = molecular target: T1, CepR; assay: E. coli pcepI-lux reporter; protein solubilization; assay type: cell-based; conditions: 10 µM AHL in reporter; agonist
HhqE^Bc [4] = test system: T2, HhqE^Bc; assay: fluorescence hydrolysis assay (ex […] / em […] nm); assay type: biochemical, Burkholderia cepacia; conditions: 50 mM Tricine, 0.01% Triton X-100; 2 µM enzyme; substrate up to 8 µM

T1 sequence (Q9AM51 entry or part of it): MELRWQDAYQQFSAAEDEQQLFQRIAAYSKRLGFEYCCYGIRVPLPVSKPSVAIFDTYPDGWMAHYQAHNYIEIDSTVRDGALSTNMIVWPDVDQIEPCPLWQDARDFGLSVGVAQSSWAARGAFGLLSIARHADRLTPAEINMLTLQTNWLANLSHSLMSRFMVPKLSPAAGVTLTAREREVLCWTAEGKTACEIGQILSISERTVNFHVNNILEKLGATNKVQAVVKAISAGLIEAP

CCCCCCCCCC(=O)CC(=O)N[C@H]1CCOC1=O [3OC12HSL]
protein solubilization in E. coli, SDS-PAGE (CepR [1]): C6HSL, C8HSL, C10HSL, and 3OC12HSL—were sufficient for the solubilization of CepR

CC(=O)CC(=O)SCCNC(=O)CCNC(=O)[C@H](O)C(C)(C)COP(=O)(O)OP(=O)(O)OC[C@H]1O[C@@H](n2cnc3c(N)ncnc32)[C@H](O)[C@@H]1OP(=O)(O)O [Acetoacetyl-CoA]
Km (HhqE^Bc [2]): 7.5 ± 0.4 mM

CCCCCC(=O)N[C@H]1CCOC1=O [C6HSL]
protein solubilization in E. coli, SDS-PAGE (CepR [1]): C6HSL, C8HSL, C10HSL, and 3OC12HSL—were sufficient for the solubilization of CepR

CCCCCCCC(=O)N[C@H]1CCOC1=O [C8HSL]
E. coli pcepI-lux reporter; protein solubilization (CepR [3]): CepR responded to its cognate ligand C8HSL and, to a lesser extent, C10HSL

CCCCCCCCCC(=O)N[C@H]1CCOC1=O [C10HSL]
E. coli pcepI-lux reporter; protein solubilization (CepR [3]): CepR responded to its cognate ligand C8HSL and, to a lesser extent, C10HSL

CCCC(=O)Oc1ccc2c(C)cc(=O)oc2c1 [MU-butyrate]
Km (HhqE^Bc [4]): 0.00016 mM
